# Measured values reported in patent US20260327263A1, “Anti-Bacterial Peptides” (priority 2023, published 2026).
# Where a SMILES comes first, the peptide text is derived from it. Where no end group is shown, it is not given here. [ ]: non-standard residue; d: D form. 2Nal = N[C@@H](Cc1ccc2ccccc2c1)C(=O)O; d2Nal = N[C@H](Cc1ccc2ccccc2c1)C(=O)O
# Columns and labels:
# [1] = test system: Pseudomonas aeruginosa (PA); assay: Broth microdilution anti-bacterial assay (CLSI), Pseudomonas aeruginosa; type: cell-based, Pseudomonas aeruginosa (ATCC 14213); conditions: for MIC / MBC: PA; for MIC: overnight, 37° C., ≥99% inhibition; for MBC: ≥99% killing
# Method: (§1) To evaluate their anti-bacterial potency, broth microdilution method as per the CLSI guidelines 1 was used. […] The anti-bacterial potency of the tested agents is quantified using minimum inhibitory concentration (MIC) and minimum bactericidal concentration (MBC). […] To obtain the MBC data, 1X, 2X and 4× MIC of the peptide variants were plated to obtain the number of viable colonies compared to the original inoculum.
# (§2) Pseudomonas aeruginosa (ATCC 14213, PA), and methicillin resistant Staphylococcus aureus (BAA1717-USA 300, SA) were obtained from The American Type Culture Collection (ATCC).
# (§3) Examination of the potency of modified short peptides against PA and SA strains was performed by using the broth microdilution protocol from the Clinical and Laboratory Standards Institute (CLSI) guidelines (CLSI 2012) as described. Briefly, five freshly plated bacteria colonies were grown in cation adjusted MH2 broth (BD Biosciences) in a shaker incubator at 37° C., 220 RPM. Cells were grown to an optical density (OD600) of ~0.2 measured using a Microplate Spectrophotometer (Molecular Devices Spectra Max Plus). 100 μL of microbial culture containing ~5×10^5 CFU/mL of bacteria in the respective broths were introduced into each well containing 100 μL of peptides and incubated overnight at 37° C. Next, to check the bactericidal effects, 100 μL from each well was transferred and spread on sterile MH2 agar plates. The plates were incubated overnight at 37° C. and the number of colonies forming units (CFU) were calculated the following day. Readings of bacteria grown in media without any treatments were normalized to 100% as media control. For the mixed infection study, three freshly plated bacteria colonies each from PA, SA and ST plates were grown together in cation adjusted MH2 broth and proceeded as described above.
# [2] = test system: Staphylococcus aureus (SA); assay: Broth microdilution anti-bacterial assay (CLSI), Staphylococcus aureus; type: cell-based; conditions: SA; for MIC: overnight, 37° C., ≥99% inhibition; for MBC: ≥99% killing
# Method: as §1, §2, §3
# [3] = test system: Pseudomonas aeruginosa (PA); assay: Time-kill assay, Pseudomonas aeruginosa; type: cell-based
# Method: (§4) The bactericidal abilities of the variant peptides are not only effective, but also fast-acting. […] The killing kinetics are detailed in Table 11 below.
# (§5) Pseudomonas aeruginosa (PA) and Staphylococcus aureus (SA) strains were grown as per CLSI guidelines. AMPs were added to the bacterial cultures at their 1X MBC concentrations. Upon treatment, the bacterial cultures were enumerated for viable counts immediately within 1 min, 5 min, 15 min, 30 min and 60 min post-treatments.
# [4] = test system: Staphylococcus aureus (SA); assay: Time-kill assay, Staphylococcus aureus; type: cell-based
# Method: as §4, §5
# human keratinocytes = assay: 2D scratch assay, keratinocyte migration; type: cell-based; conditions: 48 h; E1AM2 3.125-12.5 μM, Q19L 3.125-6.25 μM
# Method: Wound healing is directly associated with the migration speed of keratinocytes. The migration speed of human keratinocytes in presence of E1AM2, V8L (SEQ ID NO: 19), and Q19L variants is tested in comparison with pexiganan (SEQ ID NO: 54). Migration speed of human keratinocytes assessed in a 2D scratch assay at D 0 and D 2 timepoints. Decrease in wound area over time was measured by applying an ImageJ plugin ‘Wound Healing Size Tool’ on bright-field images. The change in wound area over the course of 48 hours was used as a measure of the migration speed of keratinocytes. Each value is the mean±SD (n=3). The p-value was calculated using ANOVA for multiple comparisons (Dunnett's multiple comparisons test). **** p<0.0001. *** p<0.001. ** p <0.01. * p<0.05. […] Both peptides healed wound faster within their respective MIC and MBC concentrations. […] SEQ ID NO: 27=Q19L; SEQ ID NO: 2=E1AM2; SEQ ID NO: 19=V8L.
# (§6) Wound closure was compared with the untreated samples (circle, red highlight). For improved clarity, error bars have been omitted from this representation. […] Each value is the mean±SD (n=3). Statistical significance was assessed using ANOVA for multiple comparisons (Dunnett's multiple comparisons test). **** p<0.0001, *** p<0.001, ** p<0.01, *p<0.05, ns denotes nonsignificance, p >0.05.
# Wound areas of the human keratinocyte culture were assessed in presence of peptides in a 2D scratch assay at the 0 hour, and 48-hour time points by applying an ImageJ plugin, ‘Wound Healing Size Tool’ on brightfield images. Quantification of wound width was calculated by obtaining the averaged Euclidean distance between each paired pixel at the lateral wound edges. The change in wound area over the course of 48 hours was used as a measure of the migration speed of keratinocytes.
# Using the inverted BioTek Lionheart LX Automated Microscope, brightfield images were obtained at 4× magnification to observe the wound area at timepoints 0 (before treatment) and 48 hours-post treatment. Microscopy settings were maintained as focus offset (781.3 μm), illumination (2), integration Time (21) with no gain. To cover the entire well, montage images of four rows by three columns were stitched together by enabling the “image stitching” function and images were saved in tiff-format.
# [5] = test system: human keratinocytes (HaCaT); assay: Cell proliferation assay, HaCaT keratinocytes; type: cell-based; conditions: 24 h; up to highest tested concentrations (peptide); 3% (H2O2)
# Method: as §6
# CyQUANT™ Direct Cell Proliferation Assay (ThermoFisher Scientific, Catalogue) was performed as per manufacturer's instructions to determine the safety of the peptides to human keratinocytes. […] The fluorescence intensity and number of stained cells were determined using the LionHeart FX Automated Microscope (BioTek, VT, USA).
# fibroblasts (HFF-1) = assay: Cell proliferation assay, HFF-1 fibroblasts; type: cell-based; conditions: 24 h; up to highest tested concentrations (peptide); 3% (H2O2)
# bacteria = assay: Comparison of wild-type peptide E1A to V8LQ19L (Table 14)
# Description: Active peptide sequences based on ENO3 exerting significant bactericidal antibiofilm properties, and relevant to chronic wound healing are previously disclosed. The previously disclosed antimicrobial peptides (AMPs) are longer (>22-residues) in length, which would be more costly in production.
# [6] = test system: Pseudomonas aeruginosa (PA); assay: Combination of peptide with antibiotics against PA; type: cell-based
# Description: In view of the results above, the peptide variants as described herein show synergistic anti-bacterial effects when used in combination with antibiotics.
# In some examples, the methods described herein further comprises administering an antibiotic agent to the subject.
# [7] = at 1X MBC, * indicates killing within seconds
# [8] = with gentamicin and piperacillin
compound,measurement,setting,value
KKLLKKWLKLSKKALKLAQSL-NH2 [V8L],anti-bacterial activity (in words),[1]; PA and SA,reduction in the minimum inhibitory concentration (MIC) and minimum bactericidal concentration (MBC) values
same,MIC,[1],3.125 µM
same,MBC,[1],3.125 µM
same,MIC,[2],3.125 µM
same,MBC,[2],3.125 µM
same,time to kill PA (in words),[3]; 1X MBC,within minutes
same,"Time kill PA, >99% killing",[3]; [7],1* min
same,time to kill SA (in words),[4]; 1X MBC,within minutes
same,"Time kill SA, >99% killing",[4]; [7],>30 to 60 min
same,migration speed of keratinocytes,human keratinocytes,maintained keratinocyte migration speed
"OO [H2O2, hydrogen peroxide, reference compound]",cytotoxicity to HaCaT,[5],significant cytotoxicity
same,cytotoxicity to HFF-1,fibroblasts (HFF-1),significant cytotoxicity
"KVNQIGSVTESIQACKLAQSN [E1A, reference compound]",Cationicity,bacteria,Non-cationic (cannot disrupt
same,Mechanism of killing bacteria,bacteria,Unknown/non-membrane
same,Killing efficacy (in words),"bacteria; >99% inhibition or killing, even at 500 μM",Does not achieve >99%
CC(C)C[C@@H](NC(=O)[C@@H](C)NC(=O)[C@@H](CC(C)C)NC(=O)[C@@H](CCCCN)NC(=O)[C@@H](CC(C)C)NC(=O)[C@@H](C)NC(=O)[C@@H](CCCCN)NC(=O)[C@@H](CCCCN)NC(=O)[C@@H](CO)NC(=O)[C@@H](CC(C)C)NC(=O)[C@@H](CCCCN)NC(=O)[C@@H](CC(C)C)NC(=O)[C@@H](Cc1ccc2ccccc2c1)NC(=O)[C@@H](CCCCN)NC(=O)[C@@H](CCCCN)NC(=O)[C@@H](CC(C)C)NC(=O)[C@@H](CC(C)C)NC(=O)[C@@H](CCCCN)NC(=O)[C@H](N)CCCCN)C(N)=O [E1AM2 D-W72Nal V8L Q19L C-2-NH2] (H-[dK][dK][dL][dL][dK][dK][d2Nal][dL][dK][dL][dS][dK][dK][dA][dL][dK][dL][dA][dL]-NH2),MIC,[1],1.56 µM
same,MBC,[1],1.56 µM
same,MIC,[2],1.56 µM
same,MBC,[2],1.56 µM
same,MBC in combination with gentamicin and piperacillin,[6]; [8],reduced minimum bactericidal concentration (MBC)
same,MIC in combination with gentamicin and piperacillin,[6]; [8],reduced minimum inhibitory concentration (MIC)
CC(C)C[C@H](NC(=O)[C@H](C)NC(=O)[C@H](CC(C)C)NC(=O)[C@H](CCCCN)NC(=O)[C@H](CC(C)C)NC(=O)[C@H](C)NC(=O)[C@H](CCCCN)NC(=O)[C@H](CCCCN)NC(=O)[C@H](CO)NC(=O)[C@H](CC(C)C)NC(=O)[C@H](CCCCN)NC(=O)[C@H](CC(C)C)NC(=O)[C@H](Cc1ccc2ccccc2c1)NC(=O)[C@H](CCCCN)NC(=O)[C@H](CCCCN)NC(=O)[C@H](CC(C)C)NC(=O)[C@H](CC(C)C)NC(=O)[C@H](CCCCN)NC(=O)[C@@H](N)CCCCN)C(N)=O [E1AM2 W72Nal V8L Q19L C-2-NH2] (H-KKLLKK[2Nal]LKLSKKALKLAL-NH2),MIC,[1],1.56 µM
same,MBC,[1],1.56 µM
same,MIC,[2],1.56 µM
same,MBC,[2],1.56 µM
same,MBC in combination with colistin,[6]; with colistin,reduced minimum bactericidal concentration (MBC)
same,MIC in combination with colistin,[6]; with colistin,reduced minimum inhibitory concentration (MIC)
